The values that follow are results of earlier work, collected in patent publication US11353469B2, “Nontoxic compounds for use as taggants in nutritional and pharmaceutical products” (Hall Labs, LLC, priority 2019, dated 2022).

Where two headings read alike, the source gives them in different places.

For this series the following is noted: for amount recoverable in urine: single dose of 1 g/kg body weight.

As to `C[S+](C)[O-]` [DMSO, dimethylsulfoxide], where the note is “applied topically”, the “time after administration at which DMSO has been detected in urine” value was 2 h and the “amount recoverable in urine” value was 13%. In addition, for the setting “orally administered”, the “time after administration at which compound could be detected in urine” value was 30 min and the “time of peak excretion in urine” value is not above 4 h. The “amount recoverable in urine” value (administered orally) is reported as 30-68%.
